In paper PMC3995910, “Effect of Proline Analogues on Activity of Human Prolyl Hydroxylase and the Regulation of HIF Signal Transduction Pathway” (PLoS ONE, 2014):

Molecular target: T1, Prolyl hydroxylase 3 (PHD3) (Homo sapiens, UniProt Q9H6Z9)
T1 construct: gene EGLN3; recombinant human PHD3 expressed in E. coli, ~45 kDa
Experiment: fluorescence-based 2OG consumption assay (OPD derivatization), double-reciprocal kinetics
Type: biochemical

T1 sequence (Q9H6Z9 whole entry): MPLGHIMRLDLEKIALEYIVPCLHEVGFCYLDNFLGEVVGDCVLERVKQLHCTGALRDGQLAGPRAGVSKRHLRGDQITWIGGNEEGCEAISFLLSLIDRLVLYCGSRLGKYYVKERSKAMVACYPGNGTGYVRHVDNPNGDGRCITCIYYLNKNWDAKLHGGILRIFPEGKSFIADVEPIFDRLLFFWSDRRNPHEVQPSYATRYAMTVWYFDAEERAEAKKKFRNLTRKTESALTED

Row | Compound | Ki [µM]
1 | O=C(O)[C@H]1CCCN1C(=O)OCc1ccccc1 [PA2] | 2.38
2 | O=C(Nc1ccccc1NC(=O)[C@H]1CCCN1)[C@H]1CCCN1 [PA1] | 1.09
